The values below come from patent US20230339890A1, “AMINO ALCOHOL COMPOUNDS AND USES THEREOF” (Kineta, Inc., priority 2020, published 2023).

Molecules are shown by their SMILES.

For this experiment, the target named is Recombinant human CYP51A1 (lanosterol-14a-demethylase) (Homo sapiens (Human), UniProt Q16850). Nature of the experiment: Inhibition of CYP51A1, fluorescent substrate BOMCC. It counts as biochemical. The following applies: recombinant human CYP51A1 coexpressed with CYP reductase in bacterial membranes, 8-point concentration-response, read-out: CYP51 IC50. The source says: Method: Recombinant human CYP51A1 (lanosterol-14a-demethylase) enzyme was coexpressed with CYP reductase in bacterial membranes and the fluorescent substrate BOMCC (a nonnatural substrate that causes increases in fluorescence upon CYP51A1-dependent demethylation) was used to obtain 8-point dose concentration-response curves for each compound.
Recombinant human CYP51A1 (lanosterol-14a-demethylase), sequence (Q16850 whole entry): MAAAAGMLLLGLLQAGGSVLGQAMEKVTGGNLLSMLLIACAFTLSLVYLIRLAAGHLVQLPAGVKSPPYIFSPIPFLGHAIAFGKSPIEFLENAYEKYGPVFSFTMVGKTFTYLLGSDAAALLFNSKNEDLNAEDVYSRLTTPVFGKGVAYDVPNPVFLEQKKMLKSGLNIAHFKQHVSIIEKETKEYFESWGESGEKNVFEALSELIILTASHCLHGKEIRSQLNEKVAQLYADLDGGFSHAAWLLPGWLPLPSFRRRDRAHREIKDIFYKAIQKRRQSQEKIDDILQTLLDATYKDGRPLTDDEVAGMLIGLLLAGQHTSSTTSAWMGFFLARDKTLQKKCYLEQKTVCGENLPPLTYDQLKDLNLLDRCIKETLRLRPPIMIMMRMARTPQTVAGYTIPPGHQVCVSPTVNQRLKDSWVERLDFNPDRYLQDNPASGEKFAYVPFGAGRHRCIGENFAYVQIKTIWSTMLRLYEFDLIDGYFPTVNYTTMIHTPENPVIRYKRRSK
What is called IC50 is the concentration that gives 50% inhibition. Regarding `CCCN(CC(O)c1cccnn1)C(=O)Cc1ccc(Cl)c(Cl)c1` (single isomer, unassigned) [compound 35, 2-(3,4-dichlorophenyl)-N-[2-hydroxy-2-pyridazin-3-yl-ethyl]-N-propyl-acetamide], the concentration for half-maximal inhibition (IC50) is 100 to 1000 nM.

Consider `CCCN(CC(O)c1cccnn1)C(=O)Cc1ccc(Cl)c(Cl)c1` (single isomer, unassigned) [compound 36, 2-(3,4-dichlorophenyl)-N-[2-hydroxy-2-pyridazin-3-yl-ethyl]-N-propyl-acetamide], for which the concentration for half-maximal inhibition (IC50) was above 1000 nM.

For the molecule `CCCN(CC(O)c1cnccn1)C(=O)C1Cc2cc(Cl)c(Cl)cc2C1` (single isomer, unassigned) [compound 41, 5,6-dichloro-N-(2-hydroxy-2-pyrazin-2-yl-ethyl)-N-propyl-indane-2-carboxamide], the IC50 was above 1000 nM.

For `CCCN(CC(O)c1cnccn1)C(=O)C1Cc2cc(Cl)c(Cl)cc2C1` (single isomer, unassigned) [compound 42, 5,6-dichloro-N-(2-hydroxy-2-pyrazin-2-yl-ethyl)-N-propyl-indane-2-carboxamide], the IC50 was at most 100 nM.

For `CCCN(CC(O)c1cccnn1)C(=O)Cc1ccc(C#N)c(Cl)c1` (single isomer, unassigned) [compound 53, 2-(3-chloro-4-cyanophenyl)-N-(2-hydroxy-2-pyridazin-3-yl-ethyl)-N-propyl-acetamide], the half-maximal inhibitory concentration (IC50) is 100 to 1000 nM.

As for `CCCN(CC(O)c1cccnn1)C(=O)Cc1ccc(C#N)c(Cl)c1` (single isomer, unassigned) [compound 54, 2-(3-chloro-4-cyanophenyl)-N-(2-hydroxy-2-pyridazin-3-yl-ethyl)-N-propyl-acetamide], the IC50 is above 1000 nM.

For `O=C(Cc1ccc(C(F)(F)F)nc1)N(CC(O)c1cccnn1)C1CCC1` (single isomer, unassigned) [compound 61, N-cyclobutyl-N-(2-hydroxy-2-pyridazin-3-yl-ethyl)-2-[6-(trifluoromethyl)-3-pyridyl]acetamide], the half-inhibitory concentration (IC50) fell in the range of 100 to 1000 nM.

Turning to `O=C(Cc1ccc(C(F)(F)F)nc1)N(CC(O)c1cccnn1)C1CCC1` (single isomer, unassigned) [compound 62, N-cyclobutyl-N-(2-hydroxy-2-pyridazin-3-yl-ethyl)-2-[6-(trifluoromethyl)-3-pyridyl]acetamide], the concentration for half-maximal inhibition (IC50) was above 1000 nM.

In the case of `CCCN(CC(O)c1cccnn1)C(=O)Cc1ccc(C(F)(F)F)nc1` (single isomer, unassigned) [compound 68, N-[2-hydroxy-2-pyridazin-3-yl-ethyl]-N-propyl-2-[6-(trifluoromethyl)-3-pyridyl]acetamide], the concentration for half-maximal inhibition (IC50) was above 1000 nM.

For `CCCN(CC(O)c1cccnn1)C(=O)Cc1ccc(C(F)(F)F)nc1` (single isomer, unassigned) [compound 69, N-[2-hydroxy-2-pyridazin-3-yl-ethyl]-N-propyl-2-[6-(trifluoromethyl)-3-pyridyl]acetamide], the IC50 is at most 100 nM.

`Cc1ccncc1C(O)CN(CC1COC1)C(=O)Cc1ccc(C(F)(F)F)nc1` (single isomer, unassigned) [compound 88, N-[2-hydroxy-2-(4-methyl-3-pyridyl)ethyl] -N-(oxetan-3-ylmethyl)-2-[6-(trifluoromethyl)-3-pyridyl]acetamide]: the IC50 was at most 100 nM.

In the case of `CCCN(CC(O)c1cccnc1)C(=O)Cc1ccc(Cl)c(Cl)c1` (centres unmarked) [compound 1, 2-(3,4-dichlorophenyl)-N-[2-hydroxy-2-(3-pyridyl)ethyl]-N-propyl-acetamide], the concentration for half-maximal inhibition (IC50) is at most 100 nM.

Consider `CCCN(CC(O)c1cccnc1)C(=O)Cc1ccc2ccccc2c1` (centres unmarked) [compound 2, N-[2-hydroxy-2-(3-pyridyl)ethyl]-2-(2-naphthyl)-N-propyl-acetamide], for which the 50% inhibitory concentration (IC50) was at most 100 nM.

For `CCC(=O)N(CCc1ccc2ccccc2c1)CC(O)c1cccnc1` (centres unmarked) [compound 3], the 50% inhibitory concentration (IC50) lay within 100 to 1000 nM.

Consider `CCC(=O)N(CCc1ccc(Cl)c(Cl)c1)CC(O)c1cccnc1` (centres unmarked) [compound 4], for which the IC50 lay within 100 to 1000 nM.

In the case of `CCCN(CC(O)c1cccnc1)C(=O)Cc1ccc(OC)c(OC)c1` (centres unmarked) [compound 5, 2-(3,4-dimethoxyphenyl)-N-[2-hydroxy-2-(3-pyridyl)ethyl]-N-propyl-acetamide], the IC50 is above 1000 nM.

Take `CCCN(C[C@H](O)c1cccnc1)C(=O)Cc1ccc(Cl)c(Cl)c1` [compound 6, 2-(3,4-dichlorophenyl)-N-[(2R)-2-hydroxy-2-(3-pyridyl)ethyl]-N-propyl-acetamide]: the half-maximal inhibitory concentration (IC50) is at most 100 nM.

Turning to `CCCN(C[C@@H](O)c1cccnc1)C(=O)Cc1ccc2ccccc2c1` [compound 7, N-[(2S)-2-hydroxy-2-(3-pyridyl)ethyl]-2-(2-naphthyl)-N-propyl-acetamide], the 50% inhibitory concentration (IC50) is at most 100 nM.

`CCCN(C[C@@H](O)c1cccnc1)C(=O)Cc1ccc(Cl)c(Cl)c1` [compound 8, 2-(3,4-dichlorophenyl)-N-[(2S)-2-hydroxy-2-(3-pyridyl)ethyl]-N-propyl-acetamide]: the IC50 was at most 100 nM.

Take `CC1(N(CC(O)c2cccnc2)C(=O)Cc2ccc(Cl)c(Cl)c2)CC1` (centres unmarked) [compound 9, 2-(3,4-dichlorophenyl)-N-[2-hydroxy-2-(3-pyridyl)ethyl]-N-(1-methylcyclopropyl)a cetamide]: the concentration for half-maximal inhibition (IC50) was in the range of 100 to 1000 nM.

Turning to `CCCN(CC(O)c1cccnc1)S(=O)(=O)Cc1ccc(Cl)c(Cl)c1` (centres unmarked) [compound 10, 1-(3,4-dichlorophenyl)-N-[2-hydroxy-2-(3-pyridyl)ethyl]-N-propyl-methanesulfonamide], the 50% inhibitory concentration (IC50) was above 1000 nM.

Turning to `CCCN(C[C@@H](O)c1cccnc1)C(=O)C1Cc2cc(Cl)c(Cl)cc2C1` [compound 11], the half-maximal inhibitory concentration (IC50) was at most 100 nM.

Consider `CCCN(C[C@@H](O)c1cccnc1)C(=O)Cc1ccc(OC)c(Cl)c1` [compound 12, 2-(3-chloro-4-methoxy-phenyl)-N-[(2S)-2-hydroxy-2-(3-pyridyl)ethyl]-N-propyl-acetamide], for which the IC50 is 100 to 1000 nM.

Turning to `CCCN(CC(O)c1cncnc1)C(=O)Cc1ccc(Cl)c(Cl)c1` (centres unmarked) [compound 13, 2-(3,4-dichlorophenyl)-N-(2-hydroxy-2-pyrimidin-5-yl-ethyl)-N-propyl-acetamide], the IC50 is above 1000 nM.

`CCCN(C[C@@H](O)c1cccnc1)C(=O)Cc1ccc(Cl)cn1` [compound 14, 2-(5-chloro-2-pyridyl)-N-[(2S)-2-hydroxy-2-(3-pyridyl)ethyl]-N-propyl-acetamide]: the IC50 was above 1000 nM.

For `CCCN(C[C@@H](O)c1cccnc1)C(=O)Cc1ccc(C)nc1` [compound 15, N-[(2S)-2-hydroxy-2-(3-pyridyl)ethyl]-2-(6-methyl-3-pyridyl)-N-propyl-acetamide], the half-inhibitory concentration (IC50) is above 1000 nM.

Turning to `CCCN(C[C@@H](O)c1cccnc1)C(=O)Cc1ccc(C)c(Cl)c1` [compound 16, 2-(3-chloro-4-methyl-phenyl)-N-[(2S)-2-hydroxy-2-(3-pyridyl)ethyl]-N-propyl-acetamide], the 50% inhibitory concentration (IC50) was at most 100 nM.

`CCCN(C[C@@H](O)c1cccnc1)C(=O)Cc1ccc(C(F)(F)F)nc1` [compound 17, N-[(2S)-2-hydroxy-2-(3-pyridyl)ethyl]-N-propyl-2-[6-(trifluoromethyl)-3-pyridyl]acetamide]: the IC50 was at most 100 nM.

Take `CC(C)N(C[C@@H](O)c1cccnc1)C(=O)Cc1ccc(Cl)c(Cl)c1` [compound 18, 2-(3,4-dichlorophenyl) -N-[(2S)-2-hydroxy-2-(3-pyridyl)ethyl]-N-isopropyl-acetamide]: the IC50 was at most 100 nM.
